Source: publication PMC8588462, “Hybrid Chelator-Based PSMA Radiopharmaceuticals: Translational Approach” (Molecules, 2021)

Molecular target: T1, Prostate-specific membrane antigen (PSMA) (Homo sapiens, UniProt Q04609)
T1 construct: gene FOLH1; native full-length membrane protein on intact LNCaP prostate cancer cells; homodimer (known biology)
Test: competitive radioligand binding, LNCaP cells, filter plates
Type: cell-based
Conditions: 0.75 nM [68Ga]Ga-PSMA-10 tracer, room temperature, 45 min; non-labelled ligand (no metal)
Source text: competitive radioligand binding, LNCaP cells, filter plates on Prostate-specific membrane antigen (PSMA)

T1 sequence (Q04609 whole entry): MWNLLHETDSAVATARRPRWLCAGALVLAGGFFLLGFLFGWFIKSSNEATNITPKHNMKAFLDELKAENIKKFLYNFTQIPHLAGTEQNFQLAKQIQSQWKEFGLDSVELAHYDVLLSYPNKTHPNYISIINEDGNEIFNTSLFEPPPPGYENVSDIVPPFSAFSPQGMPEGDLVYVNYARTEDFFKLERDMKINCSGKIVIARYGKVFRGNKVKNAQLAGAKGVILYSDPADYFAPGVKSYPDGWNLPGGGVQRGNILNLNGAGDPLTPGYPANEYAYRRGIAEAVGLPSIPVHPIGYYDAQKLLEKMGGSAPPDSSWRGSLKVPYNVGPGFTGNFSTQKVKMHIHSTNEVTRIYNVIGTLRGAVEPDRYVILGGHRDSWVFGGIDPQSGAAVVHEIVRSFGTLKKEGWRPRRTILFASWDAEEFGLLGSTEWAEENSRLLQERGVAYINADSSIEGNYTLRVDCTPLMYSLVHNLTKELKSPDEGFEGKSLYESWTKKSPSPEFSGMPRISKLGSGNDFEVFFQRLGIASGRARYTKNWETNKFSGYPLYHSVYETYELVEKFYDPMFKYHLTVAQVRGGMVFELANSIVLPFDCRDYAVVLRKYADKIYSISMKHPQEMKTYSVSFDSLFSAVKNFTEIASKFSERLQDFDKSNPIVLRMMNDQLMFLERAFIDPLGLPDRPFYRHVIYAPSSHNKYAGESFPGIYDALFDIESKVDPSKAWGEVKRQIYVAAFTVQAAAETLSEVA

Structure (SMILES)	IC50
CN(CC(=O)O)C1(CCCCC(=O)NCCNc2c(NCCCC[C@H](NC(=O)N[C@@H](CCC(=O)O)C(=O)O)C(=O)O)c(=O)c2=O)CN(CC(=O)O)CCN(CC(=O)O)C1 [compound 14, DATA^5m.SA.KuE]	51.1 ± 5.5 nM
O=C(O)CCc1ccc(O)c(CN(CCN(CC(=O)O)Cc2cc(CCC(=O)NCCCCCC(=O)NCCCC[C@H](NC(=O)N[C@@H](CCC(=O)O)C(=O)O)C(=O)O)ccc2O)CC(=O)O)c1 [PSMA-11]	26.2 ± 2.4 nM
